Earlier results as cited in patent US20230008367A1, “COMPOUNDS USEFUL FOR TREATING LIVER DISEASES” (ABIONYX PHARMA SA, priority 2019, published 2023).

Tested on: adults with NASH and fibrosis
Conditions: Phase 3 trial

Structure (SMILES): CSc1ccc(C(=O)/C=C/c2cc(C)c(OC(C)(C)C(=O)O)c(C)c2)cc1 [elafibranor]
- primary endpoint of NASH resolution without worsening of fibrosis: did not demonstrate a statistically significant effect
